From ChEMBL document CHEMBL3525971 (Drug Metab Dispos, 2011)

Tests used:
[1] = Drug excretion in castrated pig urine assessed as unchanged drug level treated with finasteride at 0.2 mg/kg, iv measured during 6 hrs sampling by UPLC-tandem mass spectrometry; format: ADME, organism-based, Sus scrofa; design: dose 0.2 mg/kg, route intravenous; conditions: in vivo
[2] = Drug excretion in castrated pig urine assessed as unchanged drug level treated with finasteride at 0.8 mg/kg administered as intrajejunal dose measured during 6 hrs sampling by UPLC-tandem mass spectrometry; format: ADME, organism-based, Sus scrofa; design: dose 0.8 mg/kg; conditions: in vivo, other
[3] = Apparent biliary clearance in castrated pig treated with finasteride at 0.8 mg/kg administered as intrajejunal dose 20 mins after ketoconazole administration by UPLC-tandem mass spectrometry; format: ADME, organism-based, Sus scrofa, Bile; design: dose 0.8 mg/kg; conditions: in vivo
[4] = Drug excretion in castrated pig urine assessed as unchanged drug level treated with finasteride at 0.8 mg/kg administered as intrajejunal dose 20 mins after ketoconazole administration measured during 6 hrs sampling by UPLC-tandem mass spectrometry; format: ADME, organism-based, Sus scrofa; design: dose 0.8 mg/kg; conditions: in vivo, other
[5] = Biliary excretion in castrated pig assessed as unchanged drug level treated with finasteride at 0.8 mg/kg administered as intrajejunal dose measured during 6 hrs sampling by UPLC-tandem mass spectrometry; format: ADME, organism-based, Sus scrofa, Bile; design: dose 0.8 mg/kg; conditions: in vivo, other
[6] = Apparent biliary clearance in castrated pig treated with finasteride at 0.2 mg/kg, iv by UPLC-tandem mass spectrometry; format: ADME, organism-based, Sus scrofa, Bile; design: dose 0.2 mg/kg, route intravenous; conditions: in vivo
[7] = Biliary excretion in castrated pig assessed as unchanged drug level treated with finasteride at 0.8 mg/kg administered as intrajejunal dose 20 mins after ketoconazole administration measured during 6 hrs sampling by UPLC-tandem mass spectrometry; format: ADME, organism-based, Sus scrofa, Bile; design: dose 0.8 mg/kg; conditions: in vivo, other
[8] = Apparent biliary clearance in castrated pig treated with finasteride at 0.8 mg/kg administered as intrajejunal dose by UPLC-tandem mass spectrometry; format: ADME, organism-based, Sus scrofa, Bile; design: dose 0.8 mg/kg; conditions: in vivo
[9] = Biliary excretion in castrated pig assessed as unchanged drug level treated with finasteride at 0.2 mg/kg, iv measured during 6 hrs sampling by UPLC-tandem mass spectrometry; format: ADME, organism-based, Sus scrofa, Bile; design: dose 0.2 mg/kg, route intravenous; conditions: in vivo
[10] = Cmax in castrated pig plasma withdrawn from femoral vein at 10 mg/kg dosed via intrajejunal route by HPLC-UV; conditions: male
[11] = Half life in castrated pig plasma withdrawn from portal vein at 10 mg/kg dosed via intrajejunal route by HPLC-UV; conditions: male
[12] = Half life in castrated pig plasma withdrawn from femoral vein at 10 mg/kg dosed via intrajejunal route by HPLC-UV; conditions: male
[13] = Tmax in castrated pig plasma withdrawn from femoral vein at 10 mg/kg dosed via intrajejunal route by HPLC-UV; conditions: male
[14] = Tmax in castrated pig plasma withdrawn from portal vein at 10 mg/kg dosed via intrajejunal route by HPLC-UV; conditions: male
[15] = Cmax in castrated pig plasma withdrawn from portal vein at 10 mg/kg dosed via intrajejunal route by HPLC-UV; conditions: male
[16] = AUC (0 to 6 hrs) in castrated pig plasma withdrawn from portal vein dosed via intrajejunal route by UPLC-tandem mass spectrometry; conditions: male
[17] = AUC (0 to 6 hrs) in castrated pig plasma withdrawn from femoral vein dosed via intrajejunal route by UPLC-tandem mass spectrometry; conditions: male

CL(app) [3] [mL/min/kg] | CL(app) [6] [mL/min/kg] | CL(app) [8] [mL/min/kg] | SMILES | Ae [1] [µmol] | Ae [2] [µmol] | Ae [4] [µmol] | Ae [5] [µmol] | Ae [7] [µmol] | Ae [9] [µmol] | Cmax [10] [µM] | half-life [11] [h] | half-life [12] [h] | Tmax [13] [h] | Tmax [14] [h] | Cmax [15] [µM] | AUC(0-t) at 6 h [16] [µM·h] | AUC(0-t) at 6 h [17] [µM·h]
1.2 | 3.6 | 2.4 | CC(C)(NC(=O)[C@H]1CC[C@H]2[C@@H]3CC[C@H]4NC(=O)C=C[C@]4(C)[C@H]3CC[C@]12C)C(=O)O | 1.2 | 8.5 | 3.4 | 1.2 | 0.7 | 0.6 | – | – | – | – | – | – | – | –
– | – | – | CC(=O)N1CCN(c2ccc(OCC3COC(Cn4ccnc4)(c4ccc(Cl)cc4Cl)O3)cc2)CC1 (configuration not stated) [KETOCONAZOLE] | – | – | – | – | – | – | 3 | 3.1 | 4.1 | 1.8 | 0.7 | 9 | 22 | 13
